According to patent US10624338B2, “Nitrite microencapsulation, and uses of microencapsulated nitrite in the manufacture of pest baits” (priority 2016, dated 2020):

Assay: Scanning electron microscope inspection of encapsulated granules
Type: physicochemical
Conditions: SEM
Protocol: NaNO2 granules (food grade E250, BASF) approximately 0.2-1.0 mm and zein (USP30/NF25, Rebain International Ltd) were used as supplied. NaNO2 granules were dried in a commercial oven for 12 hours at 60° C. to remove any residual moisture. NaNO2 granules (500 g) were coated using a pan coating process; zein (10%) was dissolved in a mixture of water (10%) and ethanol (80%). For coatings containing plasticizer, zein (9.9%) was dissolved in a mixture of water (10%) and ethanol (80%) and either glycerol, PVP or PEG 400 were added at 0.1% to make a mixture containing zein and one of the potential plasticizers. To coat the NaNO2, 500 g of granules were placed in a spherical pan, the pan was rotated at 20 revolutions per minute, the liquid encapsulant solution was sprayed onto the granules at one litre per hour while the whole was warmed to 40° C. by warm predried air directed onto the granule bed to progressively evaporate the solvents. Once all coating material was applied the granules continued to be rotated to ensure drying.
NaNO2 coated in each of the four different solutions outlined above as well as uncoated NaNO2 granules were assessed visually using a scanning electron microscope (SEM) (Philips XL30S FEG, Netherlands). Samples were sputter coated with gold for 2 min (Quorum Technologies Polaron SC 7640 sputter coater, England) and viewed at an accelerating voltage of 5 kV. […]

SMILES: O=N[O-].[Na+] [Uncoated NaNO2 granules, sodium nitrite]
- aggregation of granules (54x/55x and 250x magnification): strong tendency to aggregate
- surface of granule / coat (cracks) (1000x magnification): covered in surface fissures
